In the supplement of paper PMC10307832:

Tests used:
Test in all cases: relative viability (nuclei count vs DMSO), 5 days (fraction); higher = more cells survive
ABC-1 = system: ABC-1
Method in brief: (§1)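 Relative viability equals treated-well nuclei counts divided by vehicle-well nuclei counts. Counts came from 4× images of lung cancer cell lines grown in 1536-well plates for 5 days after pin-tool dosing on the day after seeding. Dosing used one drug alone or a fixed anchor-drug dose plus five library-drug doses (not always all listed) in √10 steps, and values are medians of duplicate plates.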

NCI-H2126 = system: NCI-H2126
Method in brief: as §1

NCI-H2087 = system: NCI-H2087
Method in brief: as §1

CAL-12T = system: CAL-12T
Method in brief: as §1

NCI-H596 = system: NCI-H596
Method in brief: as §1

NCI-H2009 = system: NCI-H2009
Method in brief: as §1

NCI-H2023 = system: NCI-H2023
Method in brief: as §1

NCI-H661 = system: NCI-H661
Method in brief: as §1

EKVX = system: EKVX
Method in brief: as §1

PC-14 = system: PC-14
Method in brief: as §1

NCI-H1755 = system: NCI-H1755
Method in brief: as §1

RERF-LC-KJ = system: RERF-LC-KJ
Method in brief: as §1

NCI-H1651 = system: NCI-H1651
Method in brief: as §1

NCI-H1793 = system: NCI-H1793
Method in brief: as §1

LC-2-ad = system: LC-2-ad
Method in brief: as §1

NCI-H1395 = system: NCI-H1395
Method in brief: as §1

COR-L 105 = system: COR-L 105
Method in brief: as §1

NCI-H1648 = system: NCI-H1648
Method in brief: as §1

H3255 = system: H3255
Method in brief: as §1

UMC-11 = system: UMC-11
Method in brief: as §1

LCLC-103H = system: LCLC-103H
Method in brief: as §1

SW 900 = system: SW 900
Method in brief: as §1

EMC-BAC-2 = system: EMC-BAC-2
Method in brief: as §1

C=C1C(=O)O[C@@H](CCCCCCCC)[C@@H]1C(=O)O [C-75] + O=C(c1cc(Cc2n[nH]c(=O)c3ccccc23)ccc1F)N1CCN(C(=O)C2CC2)CC1 [Olaparib] (partner 8 µM)
relative viability (ABC-1; first compound 0.08 µM): 0.862
relative viability (ABC-1; first compound 0.253 µM): 0.703
relative viability (ABC-1; first compound 0.8 µM): 0.811
relative viability (ABC-1; first compound 2.53 µM): 0.719
relative viability (ABC-1; first compound 8 µM): 0.792
relative viability (NCI-H2126; first compound 0.08 µM): 0.881
relative viability (NCI-H2126; first compound 0.253 µM): 0.927
relative viability (NCI-H2126; first compound 0.8 µM): 0.858
relative viability (NCI-H2126; first compound 2.53 µM): 0.878
relative viability (NCI-H2126; first compound 8 µM): 0.894
relative viability (NCI-H2087; first compound 0.08 µM): 0.643
relative viability (NCI-H2087; first compound 0.253 µM): 0.626
relative viability (NCI-H2087; first compound 0.8 µM): 0.584
relative viability (NCI-H2087; first compound 2.53 µM): 0.468
relative viability (NCI-H2087; first compound 8 µM): 0.423
relative viability (CAL-12T; first compound 0.08 µM): 0.774
relative viability (CAL-12T; first compound 0.253 µM): 0.796
relative viability (CAL-12T; first compound 0.8 µM): 0.788
relative viability (CAL-12T; first compound 2.53 µM): 0.766
relative viability (CAL-12T; first compound 8 µM): 0.793
relative viability (NCI-H596; first compound 0.08 µM): 0.73
relative viability (NCI-H596; first compound 0.253 µM): 0.686
relative viability (NCI-H596; first compound 0.8 µM): 0.626
relative viability (NCI-H596; first compound 2.53 µM): 0.601
relative viability (NCI-H596; first compound 8 µM): 0.656
relative viability (NCI-H2009; first compound 0.08 µM): 0.67
relative viability (NCI-H2009; first compound 0.253 µM): 0.654
relative viability (NCI-H2009; first compound 0.8 µM): 0.623
relative viability (NCI-H2009; first compound 2.53 µM): 0.488
relative viability (NCI-H2009; first compound 8 µM): 0.521
relative viability (NCI-H2023; first compound 0.08 µM): 0.529
relative viability (NCI-H2023; first compound 0.253 µM): 0.579
relative viability (NCI-H2023; first compound 0.8 µM): 0.436
relative viability (NCI-H2023; first compound 8 µM): 0.395
relative viability (NCI-H661; first compound 0.08 µM): 0.725
relative viability (NCI-H661; first compound 0.253 µM): 0.805
relative viability (NCI-H661; first compound 0.8 µM): 0.693
relative viability (NCI-H661; first compound 2.53 µM): 0.66
relative viability (NCI-H661; first compound 8 µM): 0.699
relative viability (EKVX; first compound 0.08 µM): 0.811
relative viability (EKVX; first compound 0.253 µM): 0.884
relative viability (EKVX; first compound 0.8 µM): 0.837
relative viability (EKVX; first compound 8 µM): 0.759
relative viability (PC-14; first compound 0.08 µM): 0.276
relative viability (PC-14; first compound 0.253 µM): 0.257
relative viability (PC-14; first compound 0.8 µM): 0.296
relative viability (PC-14; first compound 2.53 µM): 0.252
relative viability (PC-14; first compound 8 µM): 0.308
relative viability (NCI-H1755; first compound 0.08 µM): 0.93
relative viability (NCI-H1755; first compound 0.253 µM): 0.872
relative viability (NCI-H1755; first compound 0.8 µM): 0.847
relative viability (NCI-H1755; first compound 2.53 µM): 0.797
relative viability (NCI-H1755; first compound 8 µM): 0.846
relative viability (RERF-LC-KJ; first compound 0.08 µM): 1.02
relative viability (RERF-LC-KJ; first compound 0.253 µM): 0.966
relative viability (RERF-LC-KJ; first compound 0.8 µM): 0.897
relative viability (RERF-LC-KJ; first compound 2.53 µM): 0.729
relative viability (RERF-LC-KJ; first compound 8 µM): 0.797
relative viability (NCI-H1651; first compound 0.08 µM): 0.196
relative viability (NCI-H1651; first compound 0.253 µM): 0.206
relative viability (NCI-H1651; first compound 0.8 µM): 0.189
relative viability (NCI-H1651; first compound 2.53 µM): 0.173
relative viability (NCI-H1651; first compound 8 µM): 0.167
relative viability (NCI-H1793; first compound 0.08 µM): 0.766
relative viability (NCI-H1793; first compound 0.253 µM): 0.988
relative viability (NCI-H1793; first compound 2.53 µM): 0.705
relative viability (NCI-H1793; first compound 8 µM): 0.83
relative viability (LC-2-ad; first compound 0.08 µM): 0.683
relative viability (LC-2-ad; first compound 0.253 µM): 0.751
relative viability (LC-2-ad; first compound 0.8 µM): 0.343
relative viability (LC-2-ad; first compound 2.53 µM): 0.596
relative viability (LC-2-ad; first compound 8 µM): 0.668
relative viability (NCI-H1395; first compound 0.08 µM): 0.423
relative viability (NCI-H1395; first compound 0.253 µM): 0.433
relative viability (NCI-H1395; first compound 2.53 µM): 0.465
relative viability (NCI-H1395; first compound 8 µM): 0.511
relative viability (COR-L 105; first compound 0.08 µM): 0.719
relative viability (COR-L 105; first compound 0.253 µM): 0.75
relative viability (COR-L 105; first compound 0.8 µM): 0.668
relative viability (COR-L 105; first compound 2.53 µM): 0.62
relative viability (COR-L 105; first compound 8 µM): 0.523
relative viability (NCI-H1648; first compound 0.08 µM): 0.921
relative viability (NCI-H1648; first compound 0.253 µM): 1.3
relative viability (NCI-H1648; first compound 0.8 µM): 0.597
relative viability (NCI-H1648; first compound 8 µM): 1.03
relative viability (H3255; first compound 0.08 µM): 0.629
relative viability (H3255; first compound 0.253 µM): 0.581
relative viability (H3255; first compound 0.8 µM): 0.583
relative viability (H3255; first compound 2.53 µM): 0.537
relative viability (H3255; first compound 8 µM): 0.573
relative viability (UMC-11; first compound 0.08 µM): 0.37
relative viability (UMC-11; first compound 0.253 µM): 0.38
relative viability (UMC-11; first compound 0.8 µM): 0.352
relative viability (UMC-11; first compound 2.53 µM): 0.27
relative viability (UMC-11; first compound 8 µM): 0.335
relative viability (LCLC-103H; first compound 0.08 µM): 0.8
relative viability (LCLC-103H; first compound 0.253 µM): 0.719
relative viability (LCLC-103H; first compound 0.8 µM): 0.697
relative viability (LCLC-103H; first compound 2.53 µM): 0.641
relative viability (LCLC-103H; first compound 8 µM): 0.767
relative viability (SW 900; first compound 0.08 µM): 0.923
relative viability (SW 900; first compound 0.253 µM): 0.945
relative viability (SW 900; first compound 0.8 µM): 1.05
relative viability (SW 900; first compound 2.53 µM): 0.803
relative viability (SW 900; first compound 8 µM): 0.977
relative viability (EMC-BAC-2; first compound 0.08 µM): 0.506
relative viability (EMC-BAC-2; first compound 0.253 µM): 0.464
relative viability (EMC-BAC-2; first compound 0.8 µM): 0.475
relative viability (EMC-BAC-2; first compound 2.53 µM): 0.389
relative viability (EMC-BAC-2; first compound 8 µM): 0.389
